Experimental data: the supplement of paper PMC9013687

Columns and labels:
[1] = system: Danio rerio embryo
Procedure: (§1)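 Zebrafish embryos (UFZ-OBI strain) were exposed from 2 hpf for 48 h (2 dpf) or 96 h (4 dpf) at 28 °C; spontaneous tail coiling was scored at 25 hpf. Morphological features from automated image analysis (FishInspector), heart rate and locomotor response were fitted with drc models. Quantal endpoints were dichotomised at 2.5 SD from controls and fitted with a log-logistic model; heart rate, pigmentation and STC were normalised to the replicate control mean. Betamethasone was tested as betamethasone dipropionate, diflorasone as diflorasone diacetate.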

[2] = system: Danio rerio embryo; assay: EC10 Pigmentation decrease; higher = less potent; details: exposure time: 2 dpf
Procedure: as §1

[3] = system: Danio rerio embryo; details: exposure time: 4 dpf
Procedure: as §1

[4] = system: Danio rerio embryo; assay: EC20 LMR dark; higher = less potent; details: exposure time: 4 dpf
Procedure: as §1

[5] = system: Danio rerio embryo; assay: EC10 Any effect; higher = less potent
Procedure: as §1

[6] = system: Danio rerio embryo; assay: EC20 Any effect; higher = less potent
Procedure: as §1

[7] = system: Danio rerio embryo; assay: spontaneous tail coiling frequency (coils/min/embryo); higher = more spontaneous movement; details: 25 hpf
Procedure: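 Spontaneous tail coilings of zebrafish embryos exposed from 2 hpf were recorded at 24-25 hpf in 1-min videos and detected by a KNIME workflow from grey-value variance. Betamethasone was tested as the dipropionate, diflorasone as the diacetate.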

[8] = system: Danio rerio embryo; assay: EC50 Otolith-eye distance_Decrease; details: exposure time: 4 dpf
Procedure: as §1

[9] = system: Danio rerio embryo; assay: EC10 LMR ligth decrease; higher = less potent; details: exposure time: 4 dpf
Procedure: as §1

[10] = system: Danio rerio embryo; assay: EC50 Pericard size_Increase
Procedure: as §1

[11] = system: Danio rerio embryo; assay: EC10 LMR dark; higher = less potent; details: exposure time: 4 dpf
Procedure: as §1

[12] = system: Danio rerio embryo; assay: EC10 Pericard size_Increase; higher = less potent
Procedure: as §1

[13] = system: Danio rerio embryo; assay: EC10 Curvature_Increase; higher = less potent; details: exposure time: 2 dpf
Procedure: as §1

[14] = system: Danio rerio embryo; assay: EC20 Pericard size_Increase; higher = less potent
Procedure: as §1

[15] = system: Danio rerio embryo; assay: EC20 Pigmentation decrease; higher = less potent; details: exposure time: 2 dpf
Procedure: as §1

[16] = system: Danio rerio embryo; assay: EC10 STC bell shape; higher = less potent; details: exposure time: 25 h
Procedure: as §1

[17] = system: Danio rerio embryo; details: exposure time: 2 dpf
Procedure: as §1

[18] = system: Danio rerio embryo; assay: EC10 Otolith-eye distance_Decrease; higher = less potent; details: exposure time: 4 dpf
Procedure: as §1

[19] = system: Danio rerio embryo; assay: EC20 STC bell shape; higher = less potent; details: exposure time: 25 h
Procedure: as §1

[20] = system: Danio rerio embryo; assay: EC10 Eye-jaw distance_Decrease; higher = less potent; details: exposure time: 4 dpf
Procedure: as §1

[21] = system: Danio rerio embryo; assay: EC50 Curvature_Increase; details: exposure time: 2 dpf
Procedure: as §1

[22] = system: Danio rerio embryo; assay: EC20 LMR ligth decrease; higher = less potent; details: exposure time: 4 dpf
Procedure: as §1

[23] = system: Danio rerio embryo; assay: EC20 Otolith-eye distance_Decrease; higher = less potent; details: exposure time: 4 dpf
Procedure: as §1

[24] = system: Danio rerio embryo; assay: EC20 Eye-jaw distance_Decrease; higher = less potent; details: exposure time: 4 dpf
Procedure: as §1

[25] = system: Danio rerio embryo; assay: EC50 Eye-jaw distance_Decrease; details: exposure time: 4 dpf
Procedure: as §1

[26] = system: Danio rerio embryo; assay: EC20 Body length_Decrease; higher = less potent
Procedure: as §1

[27] = system: Danio rerio embryo; assay: EC50 Body length_Decrease
Procedure: as §1

[28] = system: Danio rerio embryo; assay: EC20 Curvature_Increase; higher = less potent; details: exposure time: 2 dpf
Procedure: as §1

[29] = system: Danio rerio embryo; assay: EC10 Body length_Decrease; higher = less potent
Procedure: as §1

O=C(O)Cc1ccccc1Nc1c(Cl)cccc1Cl [Diclofenac]
EC50 Any effect ([1]; exposure time: 2 dpf): 12.4 µM
EC50 Any effect ([1]; exposure time: 4 dpf): 8.22 µM
EC50 LMR ligth decrease ([1]; exposure time: 4 dpf): 8.24 µM
EC50 STC bell shape ([1]; exposure time: 25 h): 50.9 µM
EC10 Pigmentation decrease [2]: 10.9 µM
EC50 LMR dark [3]: 8.07 µM
EC20 LMR dark [4]: 6.84 µM
EC10 Any effect ([5]; exposure time: 2 dpf): 10.7 µM
EC10 Any effect ([5]; exposure time: 4 dpf): 4.28 µM
EC20 Any effect ([6]; exposure time: 2 dpf): 11.3 µM
EC20 Any effect ([6]; exposure time: 4 dpf): 5.45 µM
spontaneous tail coiling frequency ([7]; 1 µM): 2.73
spontaneous tail coiling frequency ([7]; 2 µM): 2.93
spontaneous tail coiling frequency ([7]; 3.123 µM): 2.81
spontaneous tail coiling frequency ([7]; 4 µM): 2.63
spontaneous tail coiling frequency ([7]; 5.12 µM): 2.43
spontaneous tail coiling frequency ([7]; 6.25 µM): 2.41
spontaneous tail coiling frequency ([7]; 6.4 µM): 2.64
spontaneous tail coiling frequency ([7]; 8 µM): 3.93
spontaneous tail coiling frequency ([7]; 10 µM): 3.72
spontaneous tail coiling frequency ([7]; 12.5 µM): 3.42
spontaneous tail coiling frequency ([7]; 15.6 µM): 4.34
spontaneous tail coiling frequency ([7]; 25 µM): 4.62
spontaneous tail coiling frequency ([7]; 31.25 µM): 3.8
spontaneous tail coiling frequency ([7]; 50 µM): 2.15
spontaneous tail coiling frequency ([7]; 62.5 µM): 1.4
spontaneous tail coiling frequency ([7]; 100 µM): 0
spontaneous tail coiling frequency ([7]; 150 µM): 0
EC50 Otolith-eye distance Decrease [8]: 9.6 µM
EC10 LMR ligth decrease [9]: 5.85 µM
EC50 Pericard size Increase ([10]; exposure time: 2 dpf): 12.2 µM
EC50 Pericard size Increase ([10]; exposure time: 4 dpf): 8.32 µM
EC10 LMR dark [11]: 6.21 µM
EC10 Pericard size Increase ([12]; exposure time: 2 dpf): 10.5 µM
EC10 Pericard size Increase ([12]; exposure time: 4 dpf): 5.93 µM
EC10 Curvature Increase [13]: 11.5 µM
EC20 Pericard size Increase ([14]; exposure time: 2 dpf): 11.1 µM
EC20 Pericard size Increase ([14]; exposure time: 4 dpf): 6.72 µM
EC20 Pigmentation decrease [15]: 13.2 µM
EC10 STC bell shape [16]: 32.4 µM
EC50 Pigmentation decrease [17]: 18.8 µM
EC10 Otolith-eye distance Decrease [18]: 5.67 µM
EC20 STC bell shape [19]: 37.8 µM
EC10 Eye-jaw distance Decrease [20]: 5.49 µM
EC50 Curvature Increase [21]: 13.2 µM
EC20 LMR ligth decrease [22]: 6.64 µM
EC20 Otolith-eye distance Decrease [23]: 6.89 µM
EC20 Eye-jaw distance Decrease [24]: 6.88 µM
EC50 Eye-jaw distance Decrease [25]: 10.1 µM
EC20 Body length Decrease ([26]; exposure time: 2 dpf): 12.1 µM
EC20 Body length Decrease ([26]; exposure time: 4 dpf): 7.11 µM
EC50 Body length Decrease ([27]; exposure time: 2 dpf): 14.2 µM
EC50 Body length Decrease ([27]; exposure time: 4 dpf): 8.33 µM
EC20 Curvature Increase [28]: 12.1 µM
EC10 Body length Decrease ([29]; exposure time: 2 dpf): 11.1 µM
EC10 Body length Decrease ([29]; exposure time: 4 dpf): 6.47 µM
